Test results published in patent US20250011318A1 (ARCUS BIOSCIENCES, INC., priority 2023, published 2025).

Legend:
Cbl-b = biological target: T1, Cbl-b (Homo sapiens, UniProt Q13191); assay: Cbl-b probe displacement HTRF binding assay; conditions: 0.4 nM biotinylated Cbl-b, 150 nM BODIPY probe
T1 construct: biotin (biotinylated)
Protocol: The affinity with which compounds of the present disclosure bind to Cbl-b was assessed using probe displacement homologous time resolved fluorescence (HTRF) assays. The assays used a BODIPY™ conjugated probe (Example 54 from WO 2020264398) and biotinylated Cbl-b. The assays were performed in assay buffer consisting of 20 mM Hepes, 150 mM NaCl, 0.01% Triton X-100, 0.5 mM TCEP, 0.01% BSA. On the day of the assay, a 20 point, 1:2 master serial dilution of each compound was prepared in DMSO to span a final concentration range of 10 μM to 0 nM. Two hundred nanoliters of diluted compound was added to each well of a 384-well plate. Fifteen microliters of biotinylated—Cbl-b resuspended in assay buffer were added to each well and the plate incubated for 60 minutes at room temperature prior to addition of 5 μL of BODIPY™ probe in assay buffer. Final assay conditions included 0.4 nM of Cbl-b and 150 nM of BODIPY™ probe. After a further 15 minutes of incubation at room temperature, 5 μl of Streptavidin-Terbium cryptate reagent at 5-fold final concentration was added to each well of the 384-well plate. Binding of a probe to Cbl-b results in an increase of HTRF signal. HTRF signal was measured by Envision plate reader, while competition of a compound of the present disclosure with probe results in a decrease of signal. Percentage maximum activity in each test well was calculated based on DMSO (maximum activity, 0% displacement) and no protein control wells (baseline activity, 100% displacement). Binding affinity was determined from a dose response curve fitted using a standard four parameter fit equation. See Table 3 for data for compounds (Cbl-b Binding (IC50)).

Jurkat cells = assay: IL-2 secretion assay in CD3/CD28-activated Jurkat cells (AlphaLISA); type: cell-based, human; conditions: Homo sapiens, CD3/CD28 T Cell Activator, 24 h, IL-2 AlphaLISA
Protocol: Certain compounds were also evaluated in an IL-2 secretion assay. On the day of the assay, a 16 point, 1:2 master serial dilution of each compound was prepared in Opti-MEM to span a final concentration range of 10 μM to 300 pM. Assays were setup in CORNING® tissue culture-treated 384-well microplates containing 60 nL of each dilution. Jurkat cells grown in RPMI-1640 supplemented with 10% FBS, 1% Glutamax, and 1% Pen/Strep were collected, resuspended in Opti-MEM. 50,000 cells/well and added to the compound plates. After a short spin (1200 rpm for 1 min), the plates were incubated at 37° C. for 1 hour. The cells were activated by adding 15 μL of IMUNOCULT™ Human CD3/CD28 T Cell Activator (STEMCELL Technologies) diluted in Opti-MEM. After 24 h of incubation at 37° C., aliquots of culture supernatants were transferred to OptiPlate-384 (PerkinElmer) microplates. The level of IL-2 secretion in the supernatants was then determined using the IL-2 (human) AlphaLISA Detection Kit (PerkinElmer) according to the manufacturer's recommendations. The AlphaLISA signal was measured using an EnVision plate reader (PerkinElmer). EC50 values were determined by fitting the data to a standard 4-parameter logistic equation. See Table 3 for data for select compounds (IL-2 Secretion (EC50)).

T1 sequence (Q13191 whole entry, species assumed): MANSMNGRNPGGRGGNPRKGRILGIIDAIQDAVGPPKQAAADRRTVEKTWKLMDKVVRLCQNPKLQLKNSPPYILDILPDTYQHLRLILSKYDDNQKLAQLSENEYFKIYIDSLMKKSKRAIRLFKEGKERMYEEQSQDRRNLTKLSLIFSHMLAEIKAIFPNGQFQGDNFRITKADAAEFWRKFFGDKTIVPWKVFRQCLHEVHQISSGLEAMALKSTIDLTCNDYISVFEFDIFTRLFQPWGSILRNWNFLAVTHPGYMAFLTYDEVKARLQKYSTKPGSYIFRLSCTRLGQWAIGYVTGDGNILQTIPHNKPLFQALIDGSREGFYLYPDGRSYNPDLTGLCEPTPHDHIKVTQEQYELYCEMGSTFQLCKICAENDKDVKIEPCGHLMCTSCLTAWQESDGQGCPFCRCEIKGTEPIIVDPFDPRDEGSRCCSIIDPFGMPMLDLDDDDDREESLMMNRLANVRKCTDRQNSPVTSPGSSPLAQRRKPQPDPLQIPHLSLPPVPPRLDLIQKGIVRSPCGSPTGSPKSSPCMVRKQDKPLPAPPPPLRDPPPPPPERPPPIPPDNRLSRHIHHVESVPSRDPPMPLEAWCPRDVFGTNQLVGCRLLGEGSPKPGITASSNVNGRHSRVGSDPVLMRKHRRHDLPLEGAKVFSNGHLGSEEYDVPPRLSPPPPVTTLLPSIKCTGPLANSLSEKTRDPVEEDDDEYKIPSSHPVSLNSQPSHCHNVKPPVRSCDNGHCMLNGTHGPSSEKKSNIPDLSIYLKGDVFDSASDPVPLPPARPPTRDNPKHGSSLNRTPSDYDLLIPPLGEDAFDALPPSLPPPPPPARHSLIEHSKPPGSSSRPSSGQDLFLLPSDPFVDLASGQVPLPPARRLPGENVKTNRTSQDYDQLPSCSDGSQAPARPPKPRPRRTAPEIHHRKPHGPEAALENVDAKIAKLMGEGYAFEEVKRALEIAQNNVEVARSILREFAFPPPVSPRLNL

Row | IC50 (Cbl-b) [µM] | EC50 (Jurkat cells) [µM] | SMILES
1 | < 0.1 | < 0.1 | CCOc1cc(-c2ccc(F)cc2-c2nncn2C)cc(-n2cc(C3CC3)c3cc(CN4CCC[C@H](C)C4)[nH]c3c2=O)n1 [Example 9, 2-{[(S)-3-Methyl-1-piperidyl]methyl}-4-cyclopropyl-6-{6-ethoxy-4-[4-fluoro-2-(4-methyl-4H-1,2,4-triazol-3-yl)phenyl]-2-pyridyl}-1,6-dihydro-1,6-diaza-7-indenone]
2 | < 0.1 | < 0.1 | CCNc1cc(-c2ccc(F)cc2-c2nncn2C)cc(-n2cc(C3CC3)c3cc(CN4CCC[C@H](C)C4)[nH]c3c2=O)n1 [Example 11, 2-{[(S)-3-methyl-1-piperidyl]methyl}-4-cyclopropyl-6-{6-(ethylamino)-4-[4-fluoro-2-(4-methyl-4H-1,2,4-triazol-3-yl)phenyl]-2-pyridyl}-1,6-dihydro-1,6-diaza-7-indenone]
3 | < 0.1 | 0.1 to 1 | C[C@H]1CCCN(Cc2cc3c(C4CC4)cn(-c4cc(-c5ccc(F)cc5-c5nncn5C)ccn4)c(=O)c3[nH]2)C1 [Example 12, 2-{[(S)-3-Methyl-1-piperidyl]methyl}-4-cyclopropyl-6-{4-[4-fluoro-2-(4-methyl-4H-1,2,4-triazol-3-yl)phenyl]-2-pyridyl}-1,6-dihydro-1,6-diaza-7-indenone]
4 | < 0.1 | < 0.1 | [2H]C([2H])([2H])n1ccnc1-c1cc(C#N)ccc1-c1cc(C2CC2)nc(-n2cc(C3CC3)c3cc(CN4CCC[C@H](C)C4)[nH]c3c2=O)c1 [Example 14, 4-[2-(2-{[(S)-3-methyl-1-piperidyl]methyl}-4-cyclopropyl-7-oxo-1,6-dihydro-1,6-diaza-6-indenyl)-6-cyclopropyl-4-pyridyl]-3-{1-[(^2H3)methyl]-2-imidazolyl}benzonitrile]
5 | < 0.1 | < 0.1 | C[C@H]1CCCN(Cc2cc3c(C4CC4)cn(-c4cc(-c5ccc(C#N)cc5-c5nccn5C(F)F)cc(C5CC5)n4)c(=O)c3[nH]2)C1 [Example 15, 4-[2-(2-{1[(S)-3-methyl-1-piperidyl]methyl}-4-cyclopropyl-7-oxo-1,6-dihydro-1,6-diaza-6-indenyl)-6-cyclopropyl-4-pyridyl]-3-[1-(difluoromethyl)-2-imidazolyl]benzonitrile]
6 | < 0.1 | < 0.1 | C[C@H]1CCCN(Cc2cc3c(C4CC4)cn(-c4cc(-c5ccc(C#N)cc5-c5nccn5C)cc(C(F)(F)F)n4)c(=O)c3[nH]2)C1 [Example 16, 4-[2-(2-{[(S)-3-methyl-1-piperidyl]methyl}-4-cyclopropyl-7-oxo-1,6-dihydro-1,6-diaza-6-indenyl)-6-(trifluoromethyl)-4-pyridyl]-3-(1-methyl-2-imidazolyl)benzonitrile]
7 | < 0.1 | 0.1 to 1 | C[C@H]1CCCN(Cc2cc3c(C4CC4)cn(-c4cccc(-c5ccc(F)cc5-c5nccn5C)c4)c(=O)c3[nH]2)C1 [Example 17, 4-cyclopropyl-6-[3-[4-fluoro-2-(1-methylimidazol-2-yl)phenyl]phenyl]-2-[[(3S)-3-methylpiperidin-1-yl]methyl]-1H-pyrrolo[2,3-c]pyridin-7-one]
8 | < 0.1 | 1 to 5 | Cc1c[nH]nc1-c1cc(C#N)ccc1-c1cc(C2CC2)nc(-n2cc(C3CC3)c3cc(CN4C[C@@H]5C[C@H]4CN5)[nH]c3c2=O)c1 [Example 18, 4-[2-cyclopropyl-6-[4-cyclopropyl-2-[[(1S,4S)-2,5-diazabicyclo[2.2.1]-heptan-2-yl]methyl]-7-oxo-1H-pyrrolo[2,3-c]pyridin-6-yl]pyridin-4-yl]-3-(4-methyl-1H-pyrazol-3-yl)benzonitrile]
9 | < 0.1 | < 0.1 | Cc1c[nH]nc1-c1cc(C#N)ccc1-c1cc(C2CC2)nc(-n2cc(C3CC3)c3cc(CN4CCC[C@H](C)C4)[nH]c3c2=O)c1 [Example 19, 4-[2-cyclopropyl-6-[4-cyclopropyl-2-[[(3S)-3-methylpiperidin-1-yl]methyl]-7-oxo-1H-pyrrolo[2,3-c]pyridin-6-yl]pyridin-4-yl]-3-(4-methyl-1H-pyrazol-3-yl)benzonitrile]
